The record followed here is PubChem BioAssay AID2202554 (NIEHS Division of Translational Toxicology (DTT)).

Structures are written as SMILES. Records with an inconclusive call do not appear. Active and inactive are the calls of the source. No rule for the calls is given here.

The test system of this data set is S. typhimurium/E. coli reverse mutation, colony counts. Briefly: Bacterial reverse mutation test (aka Ames test) summary data. Summed up: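 Revertant colony counts on plates, compared with untreated controls, after about two days of growth. Exposure with or without liver S9 (rat/hamster/mouse), dose range per strain, 20-min 37° C preincubation or direct plate incorporation. Strains: his⁻ Salmonella, trp⁻ E. coli WP2 uvrA pKM101.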
(In general: The Ames test detects mutagens through reverse mutation in bacteria.)
As for `C=CCOC(=O)c1ccccc1N`, the outcome was “inactive; negative”.

`Oc1ccc(Cl)cc1Cc1cc(Cl)ccc1O`: the outcome was “active; positive”. Under `Cn1c(-c2ccccc2)c(N=Nc2scc[n+]2C)c2ccccc21` stands “active; positive”; under `C=CC(=O)OCCCC`, “inactive; negative”. Under `C=C(C)/C([O-])=N/[N+](C)(C)CC(C)O` (centres undefined) stands “inactive; negative”; under `CCC(CO)(CO)[N+](=O)[O-]`, “inactive; negative”. For `O=[N+]([O-])CCO`, the outcome is “active; positive”. Under `COc1cc2c(cc1OC)[C@@]13CCN4CC5=CCO[C@H]6CC(=O)N2[C@H]1[C@H]6[C@H]5C[C@H]43` stands “inactive; negative”; under `Cc1cccc2c1ccc1ccccc12`, “active; positive”; under `Nc1ccc(Br)cc1`, “inactive; negative”. Under `CC1CNCC(C)O1` (centres undefined) stands “active; positive”; under `CCCCC/C=C\C/C=C\CCCCCCCC(=O)O`, “inactive; negative”.

Consider `CCOC(=O)C1OC1c1ccccc1` (centres undefined), for which the outcome is “inactive; negative”. On to `[O-][Br+2]([O-])O`, for which the outcome is “active; positive”. As to `O=C(O)c1ccc(Cl)c(Cl)c1`, the outcome was “inactive; negative”.

Turning to `Nc1ccccc1S(=O)(=O)O`, the outcome was “active; weakly positive”. Under `Cc1cc(-c2ccc(N=Nc3c(S(=O)(=O)O)cc4cc(S(=O)(=O)O)cc(O)c4c3O)c(C)c2)ccc1N=Nc1c(S(=O)(=O)O)cc2cc(S(=O)(=O)O)cc(O)c2c1O` stands “inactive; negative”. For `CC(C)CCON=O`, the outcome is “active; positive”.

With `Cc1cc(C)cc([N+](=O)[O-])c1`, the outcome is “active; positive”. Under `CCN(CC)C(=O)C(Cl)=C(C)OP(=O)(OC)OC` stands “active; positive”.

`Cc1ccccc1C=O`: the outcome was “inactive; negative”.

`C=CCO`: the outcome is “inactive; negative”. Under `O=c1ccc(=O)[nH][nH]1` stands “inactive; negative”; under `CC1=CC(=O)CC(C)(C)C1`, “inactive; negative”; under `CCC(=O)O`, “inactive; negative”.

Take `CCCCCc1cc(O)cc(O)c1`: the outcome is “inactive; negative”. Under `C[N+](C)=c1ccc2nc3ccc(N)cc3sc-2c1` stands “active; positive”. Under `C=CC1(C)OC(=O)N(c2cc(Cl)cc(Cl)c2)C1=O` (centres undefined) stands “inactive; negative”; under `CC(C)=CCCC(C)CCO` (centres undefined), “inactive; negative”; under `CCCCOP(=O)(OCCCC)Oc1ccccc1`, “inactive; negative”.

Regarding `C=CC(=O)OC`, the outcome is “inactive; negative”. Under `CC(C)(C)N` stands “inactive; negative”; under `C1=CC2C3C=CC(C3)C2C1` (centres undefined), “inactive; negative”. Under `Nc1ccc(N=Nc2ccccc2)c(N)n1` stands “active; positive”; under `Cc1cccc(C(=O)O)c1`, “inactive; negative”. Under `Cc1cc(=O)oc2cc(O)cc(O)c12` stands “inactive; negative”. Turning to `Nc1ccc(O)c([N+](=O)[O-])c1`, the outcome was “active; positive”. Under `F` stands “inactive; negative”.

Regarding `Cc1c[nH]c(=S)[nH]c1=O`, the outcome was “inactive; negative”. Under `Cc1c(N(C)C)c(=O)n(-c2ccccc2)n1C` stands “active; weakly positive”; under `CCCC=O`, “inactive; negative”; under `ClC/C=C/CCl`, “active; positive”.

With `CC(C)O`, the outcome was “inactive; negative”. Under `O=C1c2c(O)ccc(Nc3ccc(CCO)cc3)c2C(=O)c2c([N+](=O)[O-])ccc(O)c21` stands “active; positive”. Under `COc1ccccc1[N+](=O)[O-]` stands “active; positive”; under `COc1ccccc1O`, “inactive; negative”. Under `CCCCCCc1ccc(O)cc1O` stands “inactive; negative”; under `[CH3][Hg+]`, “inactive; negative”. As for `Cc1c(N)cccc1Cl`, the outcome is “inactive; negative”.

Consider `Cc1cc(Br)ccc1NC(=O)CCl`, for which the outcome was “active; positive”. As for `O=C1C(Cl)=C(Cl)C(=O)C(Cl)=C1Cl`, the outcome was “active; positive”. Regarding `CCCCC(CC)COCC1CO1` (centres undefined), the outcome was “active; positive”. Under `CN(C)N=Nc1nc[nH]c1C(N)=O` stands “active; positive”; under `Cc1ccc(Cl)cc1`, “inactive; negative”. Under `CCC[CH2][Sn]([CH2]CCC)([CH2]CCC)[O][Sn]([CH2]CCC)([CH2]CCC)[CH2]CCC` stands “inactive; negative”; under `Nc1ccc(N)cc1`, “active; positive”; under `Cc1c(O)cccc1C(=O)N[C@@H](CSc1ccccc1)[C@H](O)CN1C[C@H]2CCCC[C@H]2C[C@H]1C(=O)NC(C)(C)C`, “inactive; negative”. Under `S=C(NC1CCCCC1)NC1CCCCC1` stands “inactive; negative”; under `CNC(=O)CSP(=S)(OC)OC`, “active; positive”. As for `Oc1ccccc1Cl`, the outcome was “inactive; negative”.

For the compound `CC(=O)OCc1ccccc1`, the outcome is “inactive; negative”.

Turning to `C=CC(=O)NCCNC(=O)C=C`, the outcome is “active; positive”. Under `CCOC(=O)C1OC1(C)c1ccccc1` (centres undefined) stands “inactive; negative”; under `Cc1cccc(C#N)c1`, “inactive; negative”.

`c1ccc2cc3c(cc2c1)-c1cccc2cccc-3c12`: the outcome is “active; positive”. Turning to `O.O=C([O-])c1ccccn1.O=C([O-])c1ccccn1.O=C([O-])c1ccccn1.[Cr+3]`, the outcome is “inactive; negative”. Under `[Co]` stands “active; positive”.

As for `Nc1ccc(C(=O)O)cc1`, the outcome was “inactive; negative”. As for `O=C(Nc1cccc2c(=O)c3c(ccc4c5cc(NC(=O)c6ccccc6)c6c(=O)c7ccccc7c(=O)c6c5[nH]c43)c(=O)c12)c1ccccc1`, the outcome is “inactive; negative”. Under `NC(=O)NNC(N)=O` stands “inactive; negative”; under `Oc1c(Cl)c(Cl)cc(Cl)c1Cl`, “inactive; negative”; under `FC(Cl)(Cl)C(F)(Cl)Cl`, “active; weakly positive”. Under `Clc1ccc(C(Cl)(Cl)Cl)cc1Cl` stands “active; positive”; under `O=[N+]([O-])c1cc(C(F)(F)F)cc([N+](=O)[O-])c1Cl`, “inactive; negative”. Under `NNC(N)=S` stands “inactive; negative”; under `O=[N+]([O-])c1cccc2c([N+](=O)[O-])cccc12`, “active; positive”; under `Cc1ccc(N)cc1Cl`, “active; weakly positive”. `Cc1ccc(N)c(C)c1`: the outcome was “active; positive”. As to `CN(C)c1ccc(C(=N)c2ccc(N(C)C)cc2)cc1`, the outcome was “active; positive”. Under `ClSC(Cl)(Cl)Cl` stands “active; positive”. Take `COc1ccc(CCC(=O)c2c(O)cc(O[C@@H]3O[C@H](CO)[C@@H](O)[C@H](O)[C@H]3O[C@@H]3O[C@@H](C)[C@H](O)[C@@H](O)[C@H]3O)cc2O)cc1O`: the outcome was “inactive; negative”. As to `CCOc1ccc(N)cc1`, the outcome is “active; positive”. For the compound `Oc1cccc(Cl)c1`, the outcome is “inactive; negative”. Under `O=Cc1ccc(Cl)c(Cl)c1` stands “inactive; negative”.

Take `Nc1ccccn1`: the outcome was “inactive; negative”. Under `C=CCCC` stands “inactive; negative”. Consider `C=COC(C)=O`, for which the outcome was “inactive; negative”. Under `C1CN1c1nc(N2CC2)nc(N2CC2)n1` stands “active; positive”; under `COC(=O)C1CCC(C(=O)OC)CC1` (centres undefined), “active; positive”; under `N[C@@H](Cc1ccc(N(CCCl)CCCl)cc1)C(=O)O`, “active; positive”. Under `ClCc1ccccc1` stands “active; weakly positive”. Consider `O=C1C(c2[nH]c3ccccc3c2O)=Nc2ccccc21`, for which the outcome is “active; positive”.

For the compound `CCOCCO`, the outcome was “inactive; negative”. Under `c1ccc2c(c1)ccc1cc3c(ccc4ccccc43)cc12` stands “active; positive”. As to `O=C(O)c1cc(O)c2c(c1)[C@H]([C@H]1c3cc(C(=O)O)cc(O)c3C(=O)c3c(O[C@@H]4O[C@H](CO)[C@@H](O)[C@H](O)[C@H]4O)cccc31)c1cccc(O[C@@H]3O[C@H](CO)[C@@H](O)[C@H](O)[C@H]3O)c1C2=O`, the outcome is “inactive; negative”.

Regarding `CCN(CC)c1cccc(O)c1`, the outcome is “active; positive”.

On to `Nc1cc([N+](=O)[O-])ccc1C(=O)O`, for which the outcome was “active; positive”. Under `CCOc1ccccc1C(N)=O` stands “inactive; negative”; under `O=[N+]([O-])c1ccccc1CCO`, “active; positive”.

On to `CC(C)=CCl`, for which the outcome was “active; positive”. Take `C=C`: the outcome is “inactive; negative”. Under `CCCC(CCC)C(=O)O` stands “inactive; negative”; under `c1ccc2cc(Nc3ccc(Nc4ccc5ccccc5c4)cc3)ccc2c1`, “active; positive”; under `C=CC=O`, “active; weakly positive”. On to `CC(CCC(=O)O)(c1ccc(O)cc1)c1ccc(O)cc1`, for which the outcome is “inactive; negative”.

As for `C=CC(=O)CC`, the outcome was “active; positive”.

On to `Clc1ccc(C(Cl)(Cl)Cl)c(Cl)c1`, for which the outcome was “active; positive”.

For `CCN(CC)CCCC(C)Nc1c2ccc(Cl)cc2nc2ccc(OC)cc12` (centres undefined), the outcome was “active; positive”. Under `O=C1c2ccccc2C(=O)c2ccccc21` stands “active; positive”.
